Activity calls are given as the source filed them. The rule behind the calls is not given here.
Experiments:
[1] = tested on: Rattus norvegicus; assay: Antiinflammatory activity against male Sprague-Dawley rat pressure ulcer model assessed as wound healing rate at 2.5% administration as ointment measured after 7 days (reference value: 70%); type: functional; conditions: time 7 day
[2] = Cmax in Sprague-Dawley rat at 10 mg/kg, po; type: ADME, organism-based; conditions: in vivo
[3] = Acute toxicity in male Kunming mouse assessed as effect on weight at 500 to 4000 mg/kg measured after 14 days; type: organism-based; conditions: in vivo, 336 h, dose 500-4000 mg/kg, time 14 day
[4] = tested on: Enterococcus faecium; assay: Antibacterial activity against Enterococcus faecium BNCC358275 assessed as reduction in bacterial colonies growth at 512 ug/ml measured after 24 hrs by agar plate method; type: functional, organism-based; conditions: dose 512.0 µg/ml
[5] = Half life in Sprague-Dawley rat at 5 mg/kg, iv; type: ADME, organism-based; conditions: in vivo
[6] = Acute toxicity in male Kunming mouse assessed as effect on pathological changes in lung at 500 to 4000 mg/kg measured after 14 days by H and E staining based analysis; type: organism-based; conditions: in vivo, 336 h, dose 500-4000 mg/kg, time 14 day
[7] = Acute toxicity in male Kunming mouse assessed as effect on pathological changes in liver at 500 to 4000 mg/kg measured after 14 days by H and E staining based analysis; type: organism-based; conditions: in vivo, 336 h, dose 500-4000 mg/kg, time 14 day
[8] = tested on: Rattus norvegicus; assay: Antiinflammatory activity against male Sprague-Dawley rat pressure ulcer model assessed as appearance of thinner epidermal layer at 0.625 to 2.5% administered as ointment by H and E staining based analysis; type: functional, organism-based
[9] = tested on: HUVEC; assay: Inhibition of cell migration in HUVEC cells; type: functional, cell-based; conditions: Homo sapiens, dose 5-20 µM
[10] = target: High affinity cGMP-specific 3',5'-cyclic phosphodiesterase 9A (Homo sapiens, UniProt O76083); assay: Inhibition of PDE9A (unknown origin)
[11] = tested on: Rattus norvegicus; assay: Antiinflammatory activity against male Sprague-Dawley rat pressure ulcer model assessed as reduction in TNF-alpha mRNA expression in skin at 1.25% administered as ointment by qRT-PCR analysis; type: functional, organism-based
[12] = Tmax in Sprague-Dawley rat at 10 mg/kg, po; type: ADME, organism-based; conditions: in vivo
[13] = tested on: RAW264.7; assay: Antiinflammatory activity against LPS induced mouse RAW264.7 cells assessed as increase in CREB phosphorylation expression at 5 to 20 uM by Western blot analysis; type: functional, cell-based; conditions: dose 5-20 µM
[14] = Acute toxicity in female Kunming mouse assessed as effect on pathological changes in kidney at 500 to 4000 mg/kg measured after 14 days by H and E staining based analysis; type: organism-based; conditions: in vivo, 336 h, dose 500-4000 mg/kg, time 14 day
[15] = tested on: Rattus norvegicus; assay: Antiinflammatory activity against male Sprague-Dawley rat pressure ulcer model assessed as decrease in inflammatory cells in dermis at 0.625 to 2.5% administered as ointment by H and E staining based analysis; type: functional, organism-based
[16] = Acute toxicity in female Kunming mouse assessed as effect on pathological changes in lung at 500 to 4000 mg/kg measured after 14 days by H and E staining based analysis; type: organism-based; conditions: in vivo, 336 h, dose 500-4000 mg/kg, time 14 day
[17] = Acute toxicity in male Kunming mouse assessed as effect on pathological changes in kidney at 500 to 4000 mg/kg measured after 14 days by H and E staining based analysis; type: organism-based; conditions: in vivo, 336 h, dose 500-4000 mg/kg, time 14 day
[18] = C0 in Sprague-Dawley rat at 5 mg/kg, iv; type: ADME, organism-based; conditions: in vivo
[19] = Toxicity in male Sprague-Dawley rat assessed as pathological changes in liver by H and E staining based analysis; type: tissue-based; conditions: in vivo
[20] = target: Dual specificity calcium/calmodulin-dependent 3',5'-cyclic nucleotide phosphodiesterase 1A (Homo sapiens, UniProt P54750); assay: Inhibition of PDE1A (unknown origin)
[21] = target: Voltage-gated inwardly rectifying potassium channel KCNH2 (Homo sapiens, UniProt Q12809); assay: Inhibition of human ERG stably expressed in HEK293 cells by manual membrane clamp technique; type: toxicity, cell-based
[22] = target: Dual 3',5'-cyclic-AMP and -GMP phosphodiesterase 11A (Homo sapiens, UniProt Q9HCR9); assay: Inhibition of PDE11A (unknown origin)
[23] = target: T1, 3',5'-cyclic-AMP phosphodiesterase 4D (Homo sapiens, UniProt Q08499); assay: Inhibition of PDE4D (unknown origin)
[24] = Apparent volume of distribution in Sprague-Dawley rat at 5 mg/kg, iv; type: ADME, organism-based; conditions: in vivo, read-out: Vz
[25] = target: Cytochrome P450 2C9 (Homo sapiens, UniProt P11712); assay: Inhibition of human CYP2C9; type: ADME
[26] = target: T1, 3',5'-cyclic-AMP phosphodiesterase 4D; assay: Inhibition of PDE4D (unknown origin) at 1 uM relative to control

T1 sequence (Q08499 whole entry): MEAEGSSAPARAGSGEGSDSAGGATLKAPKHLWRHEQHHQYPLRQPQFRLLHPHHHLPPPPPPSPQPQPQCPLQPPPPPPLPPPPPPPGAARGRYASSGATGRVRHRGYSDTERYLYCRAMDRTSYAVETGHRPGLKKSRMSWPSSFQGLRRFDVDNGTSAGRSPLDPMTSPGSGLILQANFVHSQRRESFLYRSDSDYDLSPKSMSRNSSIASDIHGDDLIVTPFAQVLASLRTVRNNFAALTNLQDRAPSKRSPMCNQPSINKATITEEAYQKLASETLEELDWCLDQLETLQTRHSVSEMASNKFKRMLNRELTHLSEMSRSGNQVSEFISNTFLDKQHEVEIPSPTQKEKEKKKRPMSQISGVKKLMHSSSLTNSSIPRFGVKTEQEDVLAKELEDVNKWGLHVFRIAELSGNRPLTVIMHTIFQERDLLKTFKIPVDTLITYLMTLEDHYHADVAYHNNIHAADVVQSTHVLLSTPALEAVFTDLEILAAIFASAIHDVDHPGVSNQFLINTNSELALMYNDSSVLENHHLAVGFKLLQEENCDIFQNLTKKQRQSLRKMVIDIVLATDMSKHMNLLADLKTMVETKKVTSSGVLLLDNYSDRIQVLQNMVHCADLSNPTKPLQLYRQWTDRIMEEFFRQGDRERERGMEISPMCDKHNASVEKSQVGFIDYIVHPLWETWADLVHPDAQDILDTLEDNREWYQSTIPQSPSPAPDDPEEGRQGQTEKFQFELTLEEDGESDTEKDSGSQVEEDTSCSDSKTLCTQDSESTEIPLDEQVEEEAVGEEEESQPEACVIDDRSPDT
Sequence of Dual 3',5'-cyclic-AMP and -GMP phosphodiesterase 11A (Q9HCR9 whole entry): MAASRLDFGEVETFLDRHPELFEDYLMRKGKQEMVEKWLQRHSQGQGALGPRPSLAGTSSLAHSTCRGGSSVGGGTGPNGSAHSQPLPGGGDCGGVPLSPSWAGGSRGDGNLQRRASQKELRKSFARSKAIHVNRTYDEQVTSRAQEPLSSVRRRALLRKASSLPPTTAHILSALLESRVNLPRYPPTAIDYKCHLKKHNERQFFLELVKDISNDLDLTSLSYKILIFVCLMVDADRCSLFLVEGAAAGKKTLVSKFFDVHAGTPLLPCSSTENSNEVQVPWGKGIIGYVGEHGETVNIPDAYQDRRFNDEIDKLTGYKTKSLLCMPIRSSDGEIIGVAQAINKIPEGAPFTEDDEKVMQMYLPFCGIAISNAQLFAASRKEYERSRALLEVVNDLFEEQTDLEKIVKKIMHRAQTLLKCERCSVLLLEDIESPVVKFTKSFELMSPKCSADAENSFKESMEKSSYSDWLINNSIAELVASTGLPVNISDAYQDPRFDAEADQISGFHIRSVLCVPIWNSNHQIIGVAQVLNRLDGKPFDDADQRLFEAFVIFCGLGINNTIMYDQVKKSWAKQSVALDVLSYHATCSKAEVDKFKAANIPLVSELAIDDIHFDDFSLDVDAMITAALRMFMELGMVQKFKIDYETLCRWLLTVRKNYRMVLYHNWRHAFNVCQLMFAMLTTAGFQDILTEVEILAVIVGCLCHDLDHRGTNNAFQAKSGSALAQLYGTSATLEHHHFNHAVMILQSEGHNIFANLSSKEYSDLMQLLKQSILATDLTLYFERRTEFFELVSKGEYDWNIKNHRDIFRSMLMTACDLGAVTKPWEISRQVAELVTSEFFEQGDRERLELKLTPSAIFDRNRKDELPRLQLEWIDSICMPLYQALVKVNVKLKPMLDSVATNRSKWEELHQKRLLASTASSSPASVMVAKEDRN
Sequence of Cytochrome P450 2C9 (P11712 whole entry): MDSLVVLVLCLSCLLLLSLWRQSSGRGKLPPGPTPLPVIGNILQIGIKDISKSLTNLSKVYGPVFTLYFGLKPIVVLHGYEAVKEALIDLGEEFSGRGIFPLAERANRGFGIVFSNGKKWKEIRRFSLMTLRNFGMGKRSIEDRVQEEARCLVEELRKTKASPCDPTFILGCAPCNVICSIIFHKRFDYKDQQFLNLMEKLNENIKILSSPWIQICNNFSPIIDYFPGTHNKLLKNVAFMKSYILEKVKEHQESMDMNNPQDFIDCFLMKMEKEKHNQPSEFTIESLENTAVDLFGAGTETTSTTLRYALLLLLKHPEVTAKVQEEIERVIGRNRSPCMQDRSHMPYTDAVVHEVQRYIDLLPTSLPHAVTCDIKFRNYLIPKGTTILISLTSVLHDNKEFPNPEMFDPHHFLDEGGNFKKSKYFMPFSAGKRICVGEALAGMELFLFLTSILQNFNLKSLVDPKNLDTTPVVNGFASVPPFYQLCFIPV
Sequence of Dual specificity calcium/calmodulin-dependent 3',5'-cyclic nucleotide phosphodiesterase 1A (P54750 whole entry): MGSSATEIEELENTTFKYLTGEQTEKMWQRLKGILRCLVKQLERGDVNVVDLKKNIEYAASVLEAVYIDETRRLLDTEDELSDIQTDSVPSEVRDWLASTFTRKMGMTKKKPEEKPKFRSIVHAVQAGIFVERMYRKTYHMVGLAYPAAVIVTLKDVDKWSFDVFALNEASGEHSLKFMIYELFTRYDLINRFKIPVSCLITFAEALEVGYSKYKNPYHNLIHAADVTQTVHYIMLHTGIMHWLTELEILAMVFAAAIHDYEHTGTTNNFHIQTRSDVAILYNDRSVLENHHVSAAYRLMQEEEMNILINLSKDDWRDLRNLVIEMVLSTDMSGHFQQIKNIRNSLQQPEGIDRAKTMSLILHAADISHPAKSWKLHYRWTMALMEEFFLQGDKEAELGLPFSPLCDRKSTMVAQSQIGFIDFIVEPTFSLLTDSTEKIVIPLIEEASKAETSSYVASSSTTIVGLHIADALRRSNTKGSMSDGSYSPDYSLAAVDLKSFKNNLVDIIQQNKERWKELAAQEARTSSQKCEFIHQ
Sequence of High affinity cGMP-specific 3',5'-cyclic phosphodiesterase 9A (O76083 whole entry): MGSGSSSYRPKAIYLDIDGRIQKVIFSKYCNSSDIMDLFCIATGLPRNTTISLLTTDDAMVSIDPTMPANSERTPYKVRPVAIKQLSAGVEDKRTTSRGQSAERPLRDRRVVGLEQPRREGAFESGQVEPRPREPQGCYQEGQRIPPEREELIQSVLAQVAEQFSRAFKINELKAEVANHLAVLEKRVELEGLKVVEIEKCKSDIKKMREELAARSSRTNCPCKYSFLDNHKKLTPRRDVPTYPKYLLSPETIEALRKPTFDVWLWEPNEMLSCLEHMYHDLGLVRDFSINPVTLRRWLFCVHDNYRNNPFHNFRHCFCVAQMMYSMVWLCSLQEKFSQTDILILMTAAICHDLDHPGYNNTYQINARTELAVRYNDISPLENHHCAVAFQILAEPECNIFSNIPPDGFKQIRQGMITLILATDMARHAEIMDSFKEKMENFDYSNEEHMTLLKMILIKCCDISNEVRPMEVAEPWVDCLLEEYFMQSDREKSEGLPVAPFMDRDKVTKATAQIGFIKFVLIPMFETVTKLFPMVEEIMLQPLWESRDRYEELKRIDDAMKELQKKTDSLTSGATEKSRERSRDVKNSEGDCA
Sequence of Voltage-gated inwardly rectifying potassium channel KCNH2 (Q12809 whole entry): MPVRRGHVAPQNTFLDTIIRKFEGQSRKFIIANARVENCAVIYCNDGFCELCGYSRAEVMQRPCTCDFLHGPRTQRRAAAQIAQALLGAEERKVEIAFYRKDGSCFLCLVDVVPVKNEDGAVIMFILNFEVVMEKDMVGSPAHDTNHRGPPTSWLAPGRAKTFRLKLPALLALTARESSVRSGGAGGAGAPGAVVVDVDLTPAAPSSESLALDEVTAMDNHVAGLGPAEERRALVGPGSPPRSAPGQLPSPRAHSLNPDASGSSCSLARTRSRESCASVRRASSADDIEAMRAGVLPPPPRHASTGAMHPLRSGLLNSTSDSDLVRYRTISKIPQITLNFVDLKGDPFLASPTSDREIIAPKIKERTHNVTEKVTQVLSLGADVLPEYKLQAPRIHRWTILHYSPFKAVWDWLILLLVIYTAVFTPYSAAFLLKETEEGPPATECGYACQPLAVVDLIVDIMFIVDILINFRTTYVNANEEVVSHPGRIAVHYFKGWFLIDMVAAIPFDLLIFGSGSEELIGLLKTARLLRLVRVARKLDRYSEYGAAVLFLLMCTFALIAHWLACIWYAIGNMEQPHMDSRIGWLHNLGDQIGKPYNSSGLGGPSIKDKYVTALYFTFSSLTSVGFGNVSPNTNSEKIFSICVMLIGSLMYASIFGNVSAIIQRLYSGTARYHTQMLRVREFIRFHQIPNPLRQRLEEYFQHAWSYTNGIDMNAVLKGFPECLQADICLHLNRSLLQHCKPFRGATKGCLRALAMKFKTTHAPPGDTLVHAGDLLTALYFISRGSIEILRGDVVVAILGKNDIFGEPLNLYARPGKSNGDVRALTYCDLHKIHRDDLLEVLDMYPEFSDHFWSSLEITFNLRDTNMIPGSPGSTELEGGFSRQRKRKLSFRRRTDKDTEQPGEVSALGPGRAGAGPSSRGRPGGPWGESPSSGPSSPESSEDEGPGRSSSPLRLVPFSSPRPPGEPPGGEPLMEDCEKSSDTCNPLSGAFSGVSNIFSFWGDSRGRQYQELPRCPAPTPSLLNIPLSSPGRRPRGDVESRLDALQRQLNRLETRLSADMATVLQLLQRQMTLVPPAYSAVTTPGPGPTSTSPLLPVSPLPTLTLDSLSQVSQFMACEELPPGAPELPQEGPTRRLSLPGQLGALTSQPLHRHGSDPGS

SMILES: Cn1c(=O)c2c(ncn2CCC(=O)NNC(=O)c2cc3nccc(-c4ccc(OC(F)F)c(OCC5CC5)c4)n3n2)n(C)c1=O
- Activity [1]: 81%
- Cmax [2]: 14.4 ng/mL
- Activity [3]: Non-toxic
- Activity [4]: Active
- half-life [5]: 16.8 min
- Activity [6]: Non-toxic
- Activity [7]: Non-toxic
- Activity [8]: Active
- inhibition [9]: Dose-dependent-effect
- IC50 [10]: > 50 µM
- Activity [11]: Active
- Tmax [12]: 15 min
- Activity [13]: Active
- Activity [14]: Non-toxic
- Activity [15]: Active
- Activity [16]: Non-toxic
- Activity [17]: Non-toxic
- C0 [18]: 1140 ng/mL
- Activity [19]: Non-toxic
- IC50 [20]: > 50 µM
- IC50 [21]: > 10 µM
- IC50 [22]: > 50 µM
- IC50 [23]: 0.029 µM
- Vd [24]: 8.79 L/kg
- IC50 [25]: 24.7 µM
- inhibition [26]: 95.8%

From ChEMBL document CHEMBL6178016, “Design, Synthesis, and Biological Evaluation of New PDE4 Inhibitors for the Treatment of Pressure Ulcers” (J Med Chem, 2025)
